The source of these data is patent US12662494B2, “Optically active bridged piperidine derivative” (Sumitomo Pharma Co., Ltd., priority 2018, dated 2026).

Experiment [1] addresses T1, Menin-MLL binding (His-Menin1-615 and MLL1-172-FLAG) (Homo sapiens, UniProt O00255).
T1 construct: Menin1-615 wherein 6× His tag and HA tag are inserted in the N-terminus; HA (N); myc (C)
T1 sequence (O00255 1-615 isoform O00255-1): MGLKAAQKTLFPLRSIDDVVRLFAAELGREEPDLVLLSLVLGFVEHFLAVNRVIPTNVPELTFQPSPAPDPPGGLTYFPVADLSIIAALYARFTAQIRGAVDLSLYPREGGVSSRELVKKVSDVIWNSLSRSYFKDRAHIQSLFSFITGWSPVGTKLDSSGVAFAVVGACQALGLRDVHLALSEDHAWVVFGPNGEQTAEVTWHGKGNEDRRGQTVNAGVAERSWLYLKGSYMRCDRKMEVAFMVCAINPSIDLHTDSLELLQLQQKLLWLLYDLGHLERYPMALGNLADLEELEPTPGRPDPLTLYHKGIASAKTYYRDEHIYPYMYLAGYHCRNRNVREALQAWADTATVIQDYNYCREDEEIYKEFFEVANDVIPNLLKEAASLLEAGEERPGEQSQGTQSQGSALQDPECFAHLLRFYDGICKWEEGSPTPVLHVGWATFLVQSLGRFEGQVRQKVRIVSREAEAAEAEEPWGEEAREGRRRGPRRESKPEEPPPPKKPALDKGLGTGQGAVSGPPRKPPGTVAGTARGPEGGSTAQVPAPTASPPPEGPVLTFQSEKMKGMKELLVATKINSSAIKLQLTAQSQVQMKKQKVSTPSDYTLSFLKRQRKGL
Nature of the experiment: Test 1: inhibition of the menin-MLL binding (HTRF). The settings on record: His-Menin1-615 30 nmol/L, MLL1-172-FLAG 50 nmol/L. The protocol: Test 1: Test for Evaluating the Inhibition of the Menin-MLL Binding
Menin1-615 wherein 6× His tag and HA tag are inserted in the N-terminus, and myc tag is inserted in the C-terminus (hereinafter, referred to as His-Menin1-615), was diluted with an assay buffer (25 mmol/L HEPES, 150 mmol/L NaCl, 1 mmol/L dithiothreitol, 0.5% (w/v) Tween 80, 0.3% (w/v) BSA, 0.3% (w/v) skim milk) to adjust the final concentration to 30 nmol/L. The test compounds were also diluted with the assay buffer to adjust each concentration of the test compounds to 0.005 to 5 μmol/L. The prepared His-Menin1-615 and test compounds were added to a light-shielding 384-well low-volume plate (Corning, #4514) in 2 μL/well and […], respectively, and the plate was covered with a lid for light-shielding (Corning, #3935), and incubated at room temperature for 3 hours. After the incubation, MLL1-172 wherein FLAG tag is inserted in the C-terminus (MLL1-172-FLAG), was separately diluted with the assay buffer to adjust the final concentration to 50 nmol/L. The prepared MLL1-172-FLAG was added to the above plate in 2 μL/well, and the plate was covered with a lid for light-shielding and incubated at room temperature for an hour.
Then, anti-6HIS-d2 antibody (cisbio, 61HISDLA) and anti-FLAGM2-K antibody (cisbio, 61FG2KLA) were diluted with an antibody dilution buffer (50 mmol/L Tris, 150 mmol/L NaCl, 800 mmol/L KF, pH 7.4) to adjust the final concentration to 1.4 μg/mL to prepare an antibody mixture. The prepared antibody mixture was added to the above plate in 10 μL/well, and the plate was covered with a lid and incubated at 4° C. for 17 to 24 hours. After the incubation, the signal was detected with RUBYstar (BMG LABTECH).
(In general: In TR-FRET formats the signal depends on donor and acceptor labels being close together.)

The test system of the next experiment is RS4; 11 cells. Nature of the experiment: Test 2: inhibition of cell proliferation, RS4;11. Format: cell-based. The settings on record: Homo sapiens, 168 h; RS4;11 cells, 7 days, PrestoBlue cell viability. The protocol:
(§1) Test 2: Test for Evaluating the Inhibition of Cell Proliferation
(§2) RS4; 11 cells were obtained from American Type Culture Collection (ATCC). The cells were cultured at 37° C. in the presence of 5% CO2 in RPMI 1640 medium containing 10% fetal bovine serum and 1% penicillin/streptomycin. MOLM-13 cells were separately obtained from DSMZ (Deutsche Sammlung von Mikroorganismen und Zellkulturen GmbH). The cells were cultured at 37° C. in the presence of 5% CO2 in RPMI 1640 medium containing […] and 1% penicillin/streptomycin.
(§3) The cells were plated to a 96-well plate in 2000 cells/well, each test compound was added thereto to adjust the final concentration of DMSO to 0.1% of DMSO, and the cells were cultured for 7 days. After the cultivation, the cell viability was calculated with PrestoBlue™ Cell Viability Reagent (Invitrogen, A13261). The IC50 value was calculated from a survival curve, that corresponds to the concentration of the test compound at which the cell proliferation inhibition rate is 50%.

A further experiment relates to MOLM-13 cells. Nature of the experiment: Test 2: inhibition of cell proliferation, MOLM-13. Type of experiment: cell-based. The settings on record: Homo sapiens, 168 h, 7 days, PrestoBlue cell viability. The protocol: as §1, §2, §3
The next experiment has as its system MEIS1. The experiment is described as follows: Test 3: inhibition of mRNA transcription, MEIS1 in MV4;11 cells. Format: cell-based. The settings on record: MV4;11 cells, 20 to 24 hours, fitted with GAPDH. The protocol:
(§4) Test 3: Test for the Inhibition of mRNA Transcription with Test Compounds
(§5) MV4; 11 cells were obtained from American Type Culture Collection (ATCC). The cells were cultured at 37° C. in the presence of 5% CO2 in RPMI 1640 medium containing 10% fetal bovine serum and 1% penicillin/streptomycin. To the MV4; 11 cells was added each test compound to adjust the final concentration to 1 μmol/L, and the cells were cultured at 37° C. in the presence of 5% CO2 for 20 to 24 hours. After the incubation, the total RNA was extracted from the cells with RNeasy™ Mini Kit (QIAGEN, 74106), and CDNA was synthesized with Superscript™ VILO™ CDNA Synthesis Kit (Invitrogen, #11754250). By using TaqMan™ Gene Expression Master Mix (Applied Biosystems, 4369016) and TaqMan™ probe (Applied Biosystems), the expression level of mRNA was quantified from the obtained cDNA with 7900HT (Applied Biosystems). The mRNA expression level of each obtained gene was fitted with the expression level of mRNA of GAPDH.

Another experiment relates to HOXA9. Nature of the experiment: Test 3: inhibition of mRNA transcription, HOXA9 in MV4;11 cells. Type of experiment: cell-based. The settings on record: 20 to 24 hours, fitted with GAPDH. The protocol: as §4, §5

What is called IC50 is the concentration that inhibits the measured activity by half. For `N#Cc1cnc2sc(CC(F)(F)F)cc2c1N1CC2(CN(C(=O)[C@H]3N[C@H]4CC[C@@H]3C[C@@H]4CC3CC3)C2)C1` [Example 2, 4-{6-[(1S,3S,4R,6S)-6-(cyclopropylmethyl)-2-azabicyclo[2.2.2]octane-3-carbonyl]-2,6-diazaspiro[3.3]heptan-2-yl}-2-(2,2,2-trifluoroethyl)thieno[2,3-b]pyridine-5-carbonitrile], the IC50 in experiment [1] stood at 7 nM; with RS4; 11 cells, 190 nM; in the experiment with MOLM-13 cells it was 260 nM. Further, the “mRNA at 1 μM (% control) MEIS1” value with MEIS1 is 26.6 % control. Also, the “mRNA at 1 μM (% control) HOXA9” value with HOXA9 worked out at 48.2 % control.
On the same counts, the results for `O=C([C@H]1N[C@H]2CC[C@@H]1C[C@H]2CC1CC1)N1CC2(C1)CN(c1c(C(F)(F)F)cnc3sc(CC(F)(F)F)cc13)C2` [Example 3, [(1S,3S,4R,6R)-6-(cyclopropylmethyl)-2-azabicyclo[2.2.2]octan-3-yl]{6-[2-(2,2,2-trifluoroethyl)-5-(trifluoromethyl)thieno[2,3-b]pyridin-4-yl]-2,6-diazaspiro[3.3]heptan-2-yl}methanone] are 88.6 nM, 590 nM, 800 nM, 52.6 % control and 54.0 % control.
For `N#Cc1cnc2sc(CC(F)(F)F)cc2c1N1CC2(CN(C(=O)[C@H]3N[C@H]4CC[C@@H]3C[C@H]4CC3CC3)C2)C1` [Example 4, 4-{6-[(1S,3S,4R,6R)-6-(cyclopropylmethyl)-2-azabicyclo[2.2.2]octane-3-carbonyl]-2,6-diazaspiro[3.3]heptan-2-yl}-2-(2,2,2-trifluoroethyl)thieno[2,3-b]pyridine-5-carbonitrile], in that order: 48 nM, 290 nM, 710 nM, 47.1 % control and 52.5 % control.
On the same counts, the results for `C=C1C[C@@H]2CC[C@H]1[C@@H](C(=O)N1CC3(C1)CN(c1c(C(F)(F)F)cnc4sc(CC(F)(F)F)cc14)C3)N2` [Example 5, [(1S,3S,4R)-5-methylidene-2-azabicyclo[2.2.2]octan-3-yl]{6-[2-(2,2,2-trifluoroethyl)-5-(trifluoromethyl)thieno[2,3-b]pyridin-4-yl]-2,6-diazaspiro[3.3]heptan-2-yl}methanone] are 92.7 nM, 200 nM, 280 nM, 32.3 % control and 44.3 % control.
With `C=C1C[C@@H]2CC[C@H]1[C@@H](C(=O)N1CC3(C1)CN(c1c(C#N)cnc4sc(CC(F)(F)F)cc14)C3)N2` [Example 6, 4-{6-[(1S,3S,4R)-5-methylidene-2-azabicyclo[2.2.2]octane-3-carbonyl]-2,6-diazaspiro[3.3]heptan-2-yl}-2-(2,2,2-trifluoroethyl)thieno[2,3-b]pyridine-5-carbonitrile], the half-inhibitory concentration (IC50) was 9 nM in experiment [1], 90 nM in the experiment with RS4; 11 cells and 200 nM with MOLM-13 cells. Further, in the experiment with MEIS1, the “mRNA at 1 μM (% control) MEIS1” value turned out to be 27.4 % control. Moreover, in the experiment on HOXA9, the “mRNA at 1 μM (% control) HOXA9” value is listed as 45.9 % control.
